Assay results reported in US20240383856A1 (Zedira GmbH, priority 2021, published 2024).

Experiments:
[1] = molecular target: T1, recombinant human transglutaminase 2 (Homo sapiens, UniProt P21980); experiment: Transglutaminase assay (DCC-assay): incorporation of dansylcadaverine into dimethylcasein; assay type: biochemical; settings: recombinant human TG2 10 nM; dansylcadaverine incorporation into dimethylcasein; read-out: IC50 TG2
T1 construct: purchased Zedira T022
T1 sequence (P21980 1-687): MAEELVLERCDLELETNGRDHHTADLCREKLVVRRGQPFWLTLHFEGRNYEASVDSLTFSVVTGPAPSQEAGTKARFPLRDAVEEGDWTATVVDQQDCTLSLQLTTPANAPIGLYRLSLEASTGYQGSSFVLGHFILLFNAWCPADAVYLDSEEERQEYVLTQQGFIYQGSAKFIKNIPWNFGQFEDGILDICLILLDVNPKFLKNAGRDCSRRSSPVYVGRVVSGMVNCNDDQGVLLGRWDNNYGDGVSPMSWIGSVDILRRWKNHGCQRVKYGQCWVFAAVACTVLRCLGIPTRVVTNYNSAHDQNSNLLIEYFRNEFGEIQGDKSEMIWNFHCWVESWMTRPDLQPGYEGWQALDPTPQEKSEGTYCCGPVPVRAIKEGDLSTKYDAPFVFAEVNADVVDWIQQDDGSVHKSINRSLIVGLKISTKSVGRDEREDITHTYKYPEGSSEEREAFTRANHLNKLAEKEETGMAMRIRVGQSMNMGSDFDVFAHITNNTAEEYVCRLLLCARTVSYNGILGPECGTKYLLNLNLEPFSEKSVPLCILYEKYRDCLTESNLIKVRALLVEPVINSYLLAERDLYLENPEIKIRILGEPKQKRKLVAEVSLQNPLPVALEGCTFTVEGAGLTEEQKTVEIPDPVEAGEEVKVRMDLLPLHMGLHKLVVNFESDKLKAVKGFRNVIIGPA
Procedure, shortened: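 Recombinant human TG2 (10 nM final) incorporates dansylcadaverine into N,N-dimethylcasein. Reaction mix: 50 mM Tris-HCl, 10 mM CaCl2, 10 mM glutathione, 2.5% glycerol, 16.7 µM dansylcadaverine, 4 µM dimethylcasein, 200 mM NaCl, pH 8.0. Fluorescence (ex 330/em 500 nm) was followed 30 min at 37 °C; the 20–30 min slope, expressed as % of 2% DMSO control, gave IC50.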

[2] = Caco-2 permeability assay (CacoReady kit); assay type: in vitro ADME; settings: human, Caco-2, Caco-2 barrier, CacoReady kit; above 1×10^−6 cm/s classified as permeable
Procedure, shortened: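 Papp values come from Caco-2 barrier studies intended to predict oral bioavailability; the manufacturer's procedure for the ready-made kit was followed.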

[3] = logD by shake flask method (octanol / PBS pH 7.4, HPLC); assay type: physicochemical; settings: octanol / PBS pH 7.4, shake flask
Procedure, shortened: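 Shake-flask partition of compound between octanol and phosphate-buffered saline at pH 7.4, with each phase quantified by HPLC to give LogD.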

Compound	IC50 [1]	Papp [2]	logD [3]
CNC(=O)C(=O)CC[C@H](NC(=O)c1oc2ccccc2c1C)C(=O)Nc1cccn(CC(=O)N[C@H]2C[C@H]3C[C@@H]([C@@H]2C)C3(C)C)c1=O [II-101, (S)-N1-methyl-5-(3-methylbenzofuran-2-carboxamido)-2-oxo-N6-(2-oxo-1-(2-oxo-2-((1S,2S,3S,5R)-2,6,6-trimethylbicyclo[3.1.1]heptan-3-ylamino)ethyl)-1,2-dihydropyridin-3-yl)hexanediamide]	40 to 400 nM	1 to 10 ×10⁻⁶ cm/s	3 to 5
CNC(=O)C(=O)CC[C@H](NC(=O)c1cnccn1)C(=O)Nc1cccn(CC(=O)NC2C3CC4CC(C3)CC2C4)c1=O (stereo partly drawn) [II-53, (S)-N1-(1-(2-(2-adamantylamino)-2-oxoethyl)-2-oxo-1,2-dihydropyridin-3-yl)-N6-methyl-5-oxo-2-(pyrazine-2-carboxamido)hexanediamide]	40 to 400 nM	< 1 ×10⁻⁶ cm/s	1 to 3
CNC(=O)C(=O)CC[C@H](NC(=O)c1ccnn1C)C(=O)Nc1cccn(CC(=O)NC2C3CC4CC(C3)CC2C4)c1=O (stereo partly drawn) [II-140, (S)-N1-(1-(2-(2-adamantylamino)-2-oxoethyl)-2-oxo-1,2-dihydropyridin-3-yl)-N6-methyl-2-(1-methyl-1H-pyrazole-5-carboxamido)-5-oxohexanediamide]	40 to 400 nM	< 1 ×10⁻⁶ cm/s	< 1
CCn1c(C(=O)N[C@@H](CCC(=O)C(=O)NC2CCCCC2)C(=O)Nc2cccn(CC(=O)NC34CC(C3)C4)c2=O)cc2ccccc21 [II-183, (S)-N1-(1-(2-(bicyclo[1.1.1]pentan-1-ylamino)-2-oxoethyl)-2-oxo-1,2-dihydropyridin-3-yl)-N6-cyclohexyl-2-(1-ethyl-1H-indole-2-carboxamido)-5-oxohexanediamide]	40 to 400 nM	1 to 10 ×10⁻⁶ cm/s	1 to 3
CNC(=O)C(=O)CC[C@H](NC(=O)c1oc2ccccc2c1C)C(=O)Nc1cccn(CC2C3CC4CC(C3)CC2C4)c1=O (stereo partly drawn) [II-110, (S)-N1-(1-(2-adamantylmethyl)-2-oxo-1,2-dihydropyridin-3-yl)-N6-methyl-2-(3-methylbenzofuran-2-carboxamido)-5-oxohexanediamide]	40 to 400 nM	1 to 10 ×10⁻⁶ cm/s	3 to 5
CNC(=O)C(=O)CC[C@H](NC(=O)c1coc2ccccc12)C(=O)Nc1cccn(CC(=O)NC2C3CC4CC(C3)CC2C4)c1=O (stereo partly drawn) [II-136, (S)-2-(benzofuran-3-carboxamido)-N1-(1-(2-(2-adamantylamino)-2-oxoethyl)-2-oxo-1,2-dihydropyridin-3-yl)-N6-methyl-5-oxohexanediamide]	40 to 400 nM	1 to 10 ×10⁻⁶ cm/s	1 to 3
CNC(=O)C(=O)CC[C@H](NC(=O)c1coc(C(C)=O)n1)C(=O)Nc1cccn(CC(=O)NC23CC(C2)C3)c1=O [II-168, (S)-2-(2-acetyloxazole-4-carboxamido)-N1-(1-(2-(bicyclo[1.1.1]pentan-1-ylamino)-2-oxoethyl)-2-oxo-1,2-dihydropyridin-3-yl)-N6-methyl-5-oxohexanediamide]	40 to 400 nM	< 1 ×10⁻⁶ cm/s	< 1
NC(=O)C(=O)CC[C@H](NC(=O)c1cc2ccccc2o1)C(=O)Nc1cccn(CC(=O)NC2C3CC4CC(C3)CC2C4)c1=O (stereo partly drawn) [II-124, (S)-2-(benzofuran-2-carboxamido)-N1-(1-(2-(2-adamantylamino)-2-oxoethyl)-2-oxo-1,2-dihydropyridin-3-yl)-5-oxohexanediamide]	40 to 400 nM	1 to 10 ×10⁻⁶ cm/s	1 to 3
CNC(=O)C(=O)CC[C@H](NC(=O)c1cnnn1C)C(=O)Nc1cccn(CC(=O)NC2C3CC4CC(C3)CC2C4)c1=O (stereo partly drawn) [II-51, (S)-N1-(1-(2-(2-adamantylamino)-2-oxoethyl)-2-oxo-1,2-dihydropyridin-3-yl)-N6-methyl-2-(1-methyl-1H-1,2,3-triazole-5-carboxamido)-5-oxohexanediamide]	40 to 400 nM	1 to 10 ×10⁻⁶ cm/s	< 1
CNC(=O)C(=O)CC[C@H](NC(=O)c1cc(Br)c(Br)o1)C(=O)Nc1cccn(CC(=O)NC2C3CC4CC(C3)CC2C4)c1=O (stereo partly drawn) [II-48, (S)-2-(4,5-dibromofuran-2-carboxamido)-N1-(1-(2-(2-adamantylamino)-2-oxoethyl)-2-oxo-1,2-dihydropyridin-3-yl)-N6-methyl-5-oxohexanediamide]	< 40 nM	1 to 10 ×10⁻⁶ cm/s	3 to 5

Other lines, results leading:

IC50 [1]	Papp [2]	logD [3]	Compound
40 to 400 nM	1 to 10 ×10⁻⁶ cm/s	3 to 5	O=C(Cn1cccc(NC(=O)[C@H](CCC(=O)C(=O)NC2CCCC2)NC(=O)c2nc3ccccc3s2)c1=O)N[C@@H]1C[C@@H]2CC[C@H]1C2 [II-178, (S)-2-(benzo[d]thiazole-2-carboxamido)-N1-(1-(2-((1S,2R,4R)-bicyclo[2.2.1]heptan-2-ylamino)-2-oxoethyl)-2-oxo-1,2-dihydropyridin-3-yl)-N6-cyclopentyl-5-oxohexanediamide]
< 40 nM	1 to 10 ×10⁻⁶ cm/s	1 to 3	CNC(=O)C(=O)CC[C@H](NC(=O)c1sc(C(F)(F)F)nc1Br)C(=O)Nc1cccn(CC(=O)NC2C3CC4CC(C3)CC2C4)c1=O (stereo partly drawn) [II-16, (S)-2-(4-bromo-2-(trifluoromethyl)thiazole-5-carboxamido)-N1-(1-(2-(2-adamantylamino)-2-oxoethyl)-2-oxo-1,2-dihydropyridin-3-yl)-N6-methyl-5-oxohexanediamide]
40 to 400 nM	< 1 ×10⁻⁶ cm/s	< 1	CNC(=O)C(=O)CC[C@H](NC(=O)c1snnc1C=O)C(=O)Nc1cccn(CC(=O)NC2C3CC4CC(C3)CC2C4)c1=O (stereo partly drawn) [II-205, (S)-2-(4-formyl-1,2,3-thiadiazole-5-carboxamido)-N1-(1-(2-(2-adamantylamino)-2-oxoethyl)-2-oxo-1,2-dihydropyridin-3-yl)-N6-methyl-5-oxohexanediamide]
40 to 400 nM	> 10 ×10⁻⁶ cm/s	1 to 3	CNC(=O)C(=O)CC[C@H](NC(=O)c1nc(Br)sc1Br)C(=O)Nc1cccn(CC(=O)NC2C3CC4CC(C3)CC2C4)c1=O (stereo partly drawn) [II-33, (S)-2-(2,5-dibromothiazole-4-carboxamido)-N1-(1-(2-(2-adamantylamino)-2-oxoethyl)-2-oxo-1,2-dihydropyridin-3-yl)-N6-methyl-5-oxohexanediamide]
400 to 2500 nM	< 1 ×10⁻⁶ cm/s	< 1	CNC(=O)C(=O)CC[C@H](NC(=O)c1nonc1N)C(=O)Nc1cccn(CC(=O)NC23CC(C2)C3)c1=O [II-189, (S)-2-(4-amino-1,2,5-oxadiazole-3-carboxamido)-N1-(1-(2-(bicyclo[1.1.1]pentan-1-ylamino)-2-oxoethyl)-2-oxo-1,2-dihydropyridin-3-yl)-N6-methyl-5-oxohexanediamide]
40 to 400 nM	1 to 10 ×10⁻⁶ cm/s	1 to 3	CNC(=O)C(=O)CC[C@H](NC(=O)c1csc(Br)n1)C(=O)Nc1cccn(CC(=O)NC2C3CC4CC(C3)CC2C4)c1=O (stereo partly drawn) [II-35, (S)-2-(2-bromothiazole-4-carboxamido)-N1-(1-(2-(2-adamantylamino)-2-oxoethyl)-2-oxo-1,2-dihydropyridin-3-yl)-N6-methyl-5-oxohexanediamide]
< 40 nM	1 to 10 ×10⁻⁶ cm/s	1 to 3	CNC(=O)C(=O)CC[C@H](NC(=O)c1oc2ccccc2c1Cl)C(=O)Nc1cccn(CC(=O)NC2C3CC4CC(C3)CC2C4)c1=O (stereo partly drawn) [II-4, (S)-2-(3-chlorobenzofuran-2-carboxamido)-N1-(1-(2-(2-adamantylamino)-2-oxoethyl)-2-oxo-1,2-dihydropyridin-3-yl)-N6-methyl-5-oxohexanediamide]
400 to 2500 nM	< 1 ×10⁻⁶ cm/s	1 to 3	CNC(=O)C(=O)CC[C@H](NC(=O)c1c[nH]cn1)C(=O)Nc1cccn(CC(=O)NC[C@@H]2CC[C@@H]3C[C@H]2C3(C)C)c1=O [II-209, (S)-N1-(1-(2-(((1R,2R,5R)-6,6-dimethylbicyclo[3.1.1]heptan-2-yl)methylamino)-2-oxoethyl)-2-oxo-1,2-dihydropyridin-3-yl)-2-(1H-imidazole-4-carboxamido)-N6-methyl-5-oxohexanediamide]
< 40 nM	1 to 10 ×10⁻⁶ cm/s	3 to 5	CNC(=O)C(=O)CC[C@H](NC(=O)c1cc2ccccc2s1)C(=O)Nc1cccn(CC(=O)NC2C3CC4CC(C3)CC2C4)c1=O (stereo partly drawn)
